The molecules below were run against T1, USP28 (USP28-5(1-1077)-TEV-6*His; LifeSensors) (Homo sapiens, UniProt Q96RU2) (assay: Ubiquitin-Rhodamine 110 Assay for USP28 Activity, Example A-1(b)). Settings: Ub-Rh110 assay, Example A-1(b).
T1 construct: construct USP28 (USP28-5(1-1077)-TEV-6*His; LifeSensors); TEV cleavage site (C); 6xHis (C); purchased LifeSensors
T1 sequence (Q96RU2 1-1077): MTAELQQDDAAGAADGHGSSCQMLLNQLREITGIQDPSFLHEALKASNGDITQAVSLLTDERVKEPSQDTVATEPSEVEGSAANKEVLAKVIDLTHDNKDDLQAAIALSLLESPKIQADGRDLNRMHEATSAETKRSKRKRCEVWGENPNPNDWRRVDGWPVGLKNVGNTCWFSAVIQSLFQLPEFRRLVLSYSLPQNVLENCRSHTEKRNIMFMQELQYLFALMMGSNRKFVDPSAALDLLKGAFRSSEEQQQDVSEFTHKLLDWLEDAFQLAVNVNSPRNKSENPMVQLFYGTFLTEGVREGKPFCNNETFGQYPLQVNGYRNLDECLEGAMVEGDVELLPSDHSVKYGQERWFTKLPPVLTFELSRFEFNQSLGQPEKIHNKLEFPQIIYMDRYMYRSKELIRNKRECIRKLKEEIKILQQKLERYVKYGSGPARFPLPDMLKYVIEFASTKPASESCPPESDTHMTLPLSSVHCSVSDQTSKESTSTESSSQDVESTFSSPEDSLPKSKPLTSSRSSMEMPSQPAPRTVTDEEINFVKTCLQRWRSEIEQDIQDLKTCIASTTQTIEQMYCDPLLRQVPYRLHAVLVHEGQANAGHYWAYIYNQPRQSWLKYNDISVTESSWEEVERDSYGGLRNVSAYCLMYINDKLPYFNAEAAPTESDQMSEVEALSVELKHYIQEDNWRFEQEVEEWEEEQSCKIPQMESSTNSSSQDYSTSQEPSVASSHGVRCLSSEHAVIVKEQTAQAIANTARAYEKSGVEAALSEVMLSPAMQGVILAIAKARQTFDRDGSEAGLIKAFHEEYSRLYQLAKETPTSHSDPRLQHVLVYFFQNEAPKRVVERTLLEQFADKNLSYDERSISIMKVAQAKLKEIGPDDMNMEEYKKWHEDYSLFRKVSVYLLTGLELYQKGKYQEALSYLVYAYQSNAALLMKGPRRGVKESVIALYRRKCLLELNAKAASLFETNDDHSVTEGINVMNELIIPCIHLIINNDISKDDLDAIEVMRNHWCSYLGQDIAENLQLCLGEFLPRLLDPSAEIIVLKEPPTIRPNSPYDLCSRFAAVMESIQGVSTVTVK
Type: biochemical
Protocol: Example A-1(b): Biochemical Assay: Ubiquitin-Rhodamine 110 Assay for USP28 Activity
Each assay was performed in a final volume of 20 μL in assay buffer containing 20 mM Tris-HCl (pH 8.0, (1M Tris-HCl, pH 8.0 solution; Corning 46-031-CM)), 2 mM CaCl2) (1M Calcium Chloride solution; Sigma #21114) 2 mM BME (2-Mercaptoethanol; Sigma 63689-25ML-F), 0.01% Prionex ([…] filtered, Sigma #G-0411), and 0.01% Triton X-100. Stock compound solutions were stored at −20° C. as 10 mM in DMSO. Up to 1 month prior to the assay, 2 mM test compounds were pre-dispensed into assay plates (Black, low volume; Corning #3820) and frozen at −20° C. Prestamped assay plates were allowed to come to room temperature on the day of the assay. For the screen, 100 nL of 2 mM was pre-dispensed for a final screening concentration of 10 μM (DMSO(fc)=0.5%). […] Plates were incubated stacked for 90 minutes at room temperature before fluorescence was read on the Envision (Excitation at 485 nm and Emission at 535 nm; Perkin Elmer) or on the PheraSTAR (Excitation at 485 nm and Emission at 535 nm; BMG Labtech).
For follow-up studies, each assay was performed in a final volume of 15 μL in assay buffer containing 20 mM Tris-HCl (pH 8.0, (1M Tris-HCl, pH 8.0 solution; Corning 46-031-CM)), 3 mM BME (2-Mercaptoethanol; Sigma 63689-25ML-F), 0.03% BGG (0.22 μM filtered, Sigma, G7516-25G), and 0.01% Triton X-100 (Sigma, T9284-10L). Nanoliter quantities of either an 8-point or 10-point, 3-fold serial dilution in DMSO was pre-dispensed into assay plates (Perkin Elmer, ProxiPlate-384 F Plus, #) for a final test concentration of either 25 μM to 11 nM or 25 μM to 1.3 nM, respectively. Enzyme USP28, construct USP28 (USP28-5(1-1077)-TEV-6*His; LifeSensors) concentration and incubation times were optimized for the maximal signal-to-background while maintaining initial velocity conditions at a fixed substrate concentration. The final concentration of the enzyme in the assay was 75 pM. Final substrate (Ub-Rh110; Ubiquitin-Rhodamine 110, R&D Systems #U-555) concentration was 25 nM with [Ub-Rh110]<<Km. 5 μL of 2× enzyme was added to assay plates (pre-stamped with compound) preincubated with USP28 for 30 minutes and then 5 μL of 2×Ub-Rh110 was added to assay plates. Plates were incubated stacked for 20 minutes at room temperature before 5 μL of stop solution was added (final concentration of 10 mM citric acid (Sigma, 251275-500G)). Fluorescence was read on the Envision (Excitation at 485 nm and Emission at 535 nm; Perkin Elmer) or on the PheraSTAR (Excitation at 485 nm and Emission at 535 nm; BMG Labtech).
For assay formats Example A-1(a), A-1(b), and A-2, data were reported as percent inhibition compared with control wells based on the following equation: % inh=1−((FLU−AveLow)/(AveHigh−AveLow)) where FLU=measured Fluorescence, AveLow=average Fluorescence of no enzyme control (n=16), and AveHigh=average Fluorescence of DMSO control (n=16). IC50 values were determined by curve fitting of the standard 4 parameter logistic fitting algorithm included in the Activity Base software package: IDBS XE Designer Model 205. Data is fitted using the Levenburg Marquardt algorithm.

Compound | USP28 A-1(b) IC50 range
Cc1ccc2c(N)c(C(=O)N[C@H]3COc4cc(N5CCNCC5)ccc4C3)sc2n1 (single isomer, unassigned) [Example 1-1] | +++ (0.05-0.2 μM)
Cc1ccc2c(N)c(C(=O)N[C@@H]3COc4cc(N5CCNCC5)ccc4C3)sc2n1 (single isomer, unassigned) [Example 1-2] | + (>2 μM)
Cc1ccc2c(N)c(C(=O)N[C@H]3COc4cc(N5CC6CCC(C5)N6)ccc4C3)sc2n1 (single isomer, unassigned) [Example 1-3] | +++ (0.05-0.2 μM)
Cc1ccc2c(N)c(C(=O)N[C@@H]3COc4cc(N5CC6CCC(C5)N6)ccc4C3)sc2n1 (single isomer, unassigned) [Example 1-4] | ++ (0.2-2 μM)
Cc1ccc2c(N)c(C(=O)N[C@H]3COc4cc(N5CC6CCCC(C5)N6)ccc4C3)sc2n1 (single isomer, unassigned) [Example 1-5] | ++++ (0.001-0.05 μM)
Cc1ccc2c(N)c(C(=O)N[C@@H]3COc4cc(N5CC6CCCC(C5)N6)ccc4C3)sc2n1 (single isomer, unassigned) [Example 1-6] | ++ (0.2-2 μM)
Cc1ccc2c(N)c(C(=O)N[C@H]3COc4cc(N5CCN[C@H](C)[C@@H]5C)ccc4C3)sc2n1 (single isomer, unassigned) [Example 1-9] | ++ (0.2-2 μM)
Cc1ccc2c(N)c(C(=O)N[C@@H]3COc4cc(N5CCN[C@H](C)[C@@H]5C)ccc4C3)sc2n1 (single isomer, unassigned) [Example 1-10] | ++ (0.2-2 μM)
Cc1ccc2c(N)c(C(=O)N[C@H]3COc4cc(N5CCN[C@H](C)[C@H]5C)ccc4C3)sc2n1 (single isomer, unassigned) [Example 1-11] | ++++ (0.001-0.05 μM)
Cc1ccc2c(N)c(C(=O)N[C@@H]3COc4cc(N5CCN[C@H](C)[C@H]5C)ccc4C3)sc2n1 (single isomer, unassigned) [Example 1-12] | ++++ (0.001-0.05 μM)
Cc1ccc2c(N)c(C(=O)N[C@H]3COc4cc(N5CCN[C@@H](C)[C@@H]5C)ccc4C3)sc2n1 (single isomer, unassigned) [Example 1-13] | ++ (0.2-2 μM)
Cc1ccc2c(N)c(C(=O)N[C@@H]3COc4cc(N5CCN[C@@H](C)[C@@H]5C)ccc4C3)sc2n1 (single isomer, unassigned) [Example 1-14] | ++ (0.2-2 μM)
Cc1nc2sc(C(=O)N[C@H]3COc4cc(N5CCNCC5)ccc4C3)c(N)c2cc1F (single isomer, unassigned) [Example 1-15] | +++ (0.05-0.2 μM)
Cc1nc2sc(C(=O)N[C@@H]3COc4cc(N5CCNCC5)ccc4C3)c(N)c2cc1F (single isomer, unassigned) [Example 1-16] | + (>2 μM)
Nc1c(C(=O)N[C@H]2COc3cc(N4CC5CCC(C4)N5)ccc3C2)sc2ncc(F)cc12 (single isomer, unassigned) [Example 1-17] | ++ (0.2-2 μM)
Nc1c(C(=O)N[C@@H]2COc3cc(N4CC5CCC(C4)N5)ccc3C2)sc2ncc(F)cc12 (single isomer, unassigned) [Example 1-18] | + (>2 μM)
Cc1cnc2c(N)c(C(=O)N[C@H]3COc4cc(N5CCNCC5)ccc4C3)sc2n1 (single isomer, unassigned) [Example 1-21] | ++ (0.2-2 μM)
Cc1cnc2c(N)c(C(=O)N[C@@H]3COc4cc(N5CCNCC5)ccc4C3)sc2n1 (single isomer, unassigned) [Example 1-22] | + (>2 μM)
CCn1ccc2cc(C(=O)N[C@@H]3COc4cc(N5CC6CCC(C5)N6)ccc4C3)cnc21 (single isomer, unassigned) [Example 1-27] | + (>2 μM)
CCn1ccc2cc(C(=O)N[C@H]3COc4cc(N5CC6CCC(C5)N6)ccc4C3)cnc21 (single isomer, unassigned) [Example 1-28] | +++ (0.05-0.2 μM)
Cc1ccc2c(N)c(C(=O)N[C@@H]3COc4cc(N5CC6CCC(C5)N6)cc(F)c4C3)sc2n1 (single isomer, unassigned) [Example 1-30] | + (>2 μM)
Cc1ccc2c(N)c(C(=O)N[C@H]3COc4cc(N5CCNCC5)c(OC(F)(F)F)cc4C3)sc2n1 (single isomer, unassigned) [Example 1-31] | + (>2 μM)
Cc1ccc2c(N)c(C(=O)N[C@@H]3COc4cc(N5CCNCC5)c(OC(F)(F)F)cc4C3)sc2n1 (single isomer, unassigned) [Example 1-32] | ++ (0.2-2 μM)
Cc1nc2sc(C(=O)N[C@H]3COc4cc(N5CCNCC5)cc(F)c4C3)c(N)c2s1 (single isomer, unassigned) [Example 1-37] | + (>2 μM)
Cc1nc2sc(C(=O)N[C@@H]3COc4cc(N5CCNCC5)cc(F)c4C3)c(N)c2s1 (single isomer, unassigned) [Example 1-38] | ++ (0.2-2 μM)
Cc1nc2sc(C(=O)N[C@H]3COc4cc(N5CC6CCC(C5)N6)cc(F)c4C3)c(N)c2s1 (single isomer, unassigned) [Example 1-39] | ++ (0.2-2 μM)
Cc1nc2sc(C(=O)N[C@@H]3COc4cc(N5CC6CCC(C5)N6)cc(F)c4C3)c(N)c2s1 (single isomer, unassigned) [Example 1-40] | + (>2 μM)
Cc1ccc2c(N)c(C(=O)N[C@@H]3COc4cc(N5CC6CC(C5)N6)cc(F)c4C3)sc2n1 (single isomer, unassigned) [Example 1-41] | +++ (0.05-0.2 μM)
Cc1ccc2c(N)c(C(=O)N[C@H]3COc4cc(N5CC6CC(C5)N6)cc(F)c4C3)sc2n1 (single isomer, unassigned) [Example 1-42] | + (>2 μM)
Cc1cnc2c(N)c(C(=O)N[C@H]3CCc4cc(N5CCNCC5)c(C)cc4C3)sc2n1 (single isomer, unassigned) [Example 2-34] | ++ (0.2-2 μM)
